The results in this text go back to ChEMBL document CHEMBL4385622, “Discovery of velpatasvir (GS-5816): A potent pan-genotypic HCV NS5A inhibitor in the single-tablet regimens Vosevi® and Epclusa®” (Bioorg Med Chem Lett, 2019).

Each structure is given as a SMILES string.

Data set [1] has as its target T1, Nonstructural protein 5A (Hepatitis C virus) (UniProt Q5L478).
T1 sequence (whole entry): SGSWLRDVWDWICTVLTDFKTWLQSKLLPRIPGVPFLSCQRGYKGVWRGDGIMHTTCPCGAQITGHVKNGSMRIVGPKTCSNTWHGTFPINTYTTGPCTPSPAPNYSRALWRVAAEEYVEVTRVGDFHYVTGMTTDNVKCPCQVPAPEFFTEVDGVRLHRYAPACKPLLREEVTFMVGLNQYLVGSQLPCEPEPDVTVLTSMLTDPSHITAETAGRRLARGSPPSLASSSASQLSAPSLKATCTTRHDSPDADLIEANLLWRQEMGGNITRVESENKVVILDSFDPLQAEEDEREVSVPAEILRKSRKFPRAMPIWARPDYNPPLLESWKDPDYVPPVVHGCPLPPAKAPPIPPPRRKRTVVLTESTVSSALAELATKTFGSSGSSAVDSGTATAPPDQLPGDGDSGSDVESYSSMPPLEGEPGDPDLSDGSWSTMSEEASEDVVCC
Put plainly: Potency index, ratio of EC50 of ledipasvir to EC50 of test compound for inhibition of NS5A in HCV genotype 3a infected in human HuH7 replicon cells assessed as reduction in viral replication after 3 days by luciferase reporter gene assay. The class given is cell-based. To be noted: Hepatitis C virus subtype 3a. A general note: A replicon is a self-replicating genome or part of one, used to study replication in cells.

Data set [2] in a line: Fraction absorbed in dog. The class given is ADME, Canis lupus familiaris. To be noted: in vivo, read-out: Fabs.
Data set [3] can be described thus: Fraction absorbed in cynomolgus monkey. The class given is ADME, Macaca fascicularis. To be noted: in vivo, read-out: Fabs.
Data set [4] concerns the target T1, Nonstructural protein 5A (Hepatitis C virus). Put plainly: Potency index, ratio of EC50 of ledipasvir to EC50 of test compound for inhibition of NS5A in HCV genotype 2a J6 infected in human HuH7 replicon cells assessed as reduction in viral replication after 3 days by luciferase reporter gene assay. The class given is cell-based. The note with it: Hepatitis C virus subtype 2a.

Data set [5] shares this target. Put plainly: Potency index, ratio of EC50 of ledipasvir to EC50 of test compound for inhibition of NS5A in HCV genotype 2b infected in human HuH7 replicon cells assessed as reduction in viral replication after 3 days by luciferase reporter gene assay. The class given is cell-based. To be noted: Hepatitis C virus subtype 2b.
Data set [6] can be described thus: Fraction absorbed in rat. The class given is ADME. To be noted: in vivo, read-out: Fabs.

As for `COC(=O)N[C@H](C(=O)N1CCC[C@H]1c1ncc(-c2cc3c4c(c2)OCc2cc(-c5cnc([C@@H]6CCCN6C(=O)[C@@H](NC(=O)OC)C(C)C)[nH]5)cc(c2-4)OC3)[nH]1)C(C)C`, the Ratio EC50 in data set [1] amounted to 4800; in data set [4], 28; in data set [5], 300. Besides, the results for the Fa in data set [2], in data set [3] and in data set [6] were 70%, 15% and 23%, respectively.

Take `COC(=O)N[C@H](C(=O)N1CCC[C@H]1c1ncc(-c2cc3c4c(c2)COc2cc(-c5cnc([C@@H]6CCCN6C(=O)[C@@H](NC(=O)OC)C(C)C)[nH]5)cc(c2-4)OC3)[nH]1)C(C)C`: the Fa in data set [2] amounted to 100%; in data set [6] it was 18%.

With `COC[C@H]1C[C@@H](c2ncc(-c3ccc4c(c3)COc3cc5c(ccc6nc([C@@H]7C[C@H](C)CN7C(=O)[C@@H](NC(=O)OC)C(C)C)[nH]c65)cc3-4)[nH]2)N(C(=O)[C@H](NC(=O)OC)c2ccccc2)C1`, the figures for the Fa in data set [3] and in data set [6] were 4% and 9%, respectively.

For `COC[C@H]1C[C@@H](c2ncc(-c3ccc4c(c3)COc3cc5c(ccc6nc([C@@H]7C[C@@H]8C[C@H]8N7C(=O)[C@@H](NC(=O)OC)C(C)C)[nH]c65)cc3-4)[nH]2)N(C(=O)[C@H](NC(=O)OC)c2ccccc2)C1`, the Fa in data set [6] was 13%.

In the case of `COC[C@H]1C[C@@H](c2ncc(-c3cc4c5c(c3)OCc3cc(-c6cnc([C@@H]7CC[C@H](C)N7C(=O)[C@@H](NC(=O)OC)C(C)C)[nH]6)cc(c3-5)OC4)[nH]2)N(C(=O)[C@H](NC(=O)OC)c2ccccc2)C1`, the values for the Fa in data set [3] and in data set [6] were 26% and 29%, respectively.

As to `COC(=O)N[C@@H](C(=O)N1CCC[C@H]1c1ncc(-c2cc3c4c(c2)OCc2cc(-c5cnc([C@@H]6CCCN6C(=O)[C@H](NC(=O)OC)c6ccccc6)[nH]5)cc(c2-4)OC3)[nH]1)c1ccccc1`, the Fa in data set [2] amounted to 34%; in data set [3] it was 2%; in data set [6] it was 2%.

Turning to `COC(=O)N[C@H](C(=O)N1CCC[C@H]1c1ncc(-c2ccc3c(c2)COc2cc4c(ccc5nc([C@@H]6CCCN6C(=O)[C@@H](NC(=O)OC)C(C)C)[nH]c54)cc2-3)[nH]1)C(C)C`, the Fa in data set [2] was 50%; in data set [6], 15%.

For the compound `COC(=O)N[C@H](C(=O)N1[C@@H](C)CC[C@H]1c1nc2ccc3cc4c(cc3c2[nH]1)OCc1cc(-c2cnc([C@@H]3C[C@H](C)CN3C(=O)[C@H](NC(=O)OC)c3ccccc3)[nH]2)ccc1-4)C(C)C`, in data set [6], the Fa is 4%.

With `COC(=O)N[C@H](C(=O)N1CCC[C@H]1c1ncc(-c2ccc3c(c2)COc2c-3ccc3c2ccc2nc([C@@H]4CCCN4C(=O)[C@@H](NC(=O)OC)C(C)C)[nH]c23)[nH]1)C(C)C`, the Fa in data set [2] was found to be 54%; in data set [6], 31%.

As for `COC[C@H]1C[C@@H](c2ncc(-c3ccc4c(c3)COc3cc5c(ccc6nc([C@@H]7CCCN7C(=O)[C@@H](NC(=O)OC)C(C)C)[nH]c65)cc3-4)[nH]2)N(C(=O)[C@H](NC(=O)OC)c2ccccc2)C1`, the Fa stood at 3% in data set [3] and 12% in data set [6].

On to `COC[C@H]1C[C@@H](c2ncc(-c3ccc4c(c3)COc3cc5c(ccc6nc([C@@H]7C[C@H](COC)CN7C(=O)[C@@H](NC(=O)OC)C(C)C)[nH]c65)cc3-4)[nH]2)N(C(=O)[C@@H](NC(=O)OC)C(C)C)C1`, for which the Fa in data set [6] worked out at 10%.

`COC(=O)N[C@@H](C(=O)N1[C@@H](C)CC[C@H]1c1ncc(-c2cc3c4c(c2)OCc2cc(-c5cnc([C@@H]6CC[C@H](C)N6C(=O)[C@H](NC(=O)OC)c6ccccc6)[nH]5)cc(c2-4)OC3)[nH]1)c1ccccc1`: the Fa in data set [2] worked out at 43%; in data set [6] it was 3%.

As to `COC(=O)N[C@H](C(=O)N1[C@@H](C)CC[C@H]1c1ncc(-c2ccc3c(c2)COc2cc4c(ccc5nc([C@@H]6CC[C@H](C)N6C(=O)[C@@H](NC(=O)OC)C(C)C)[nH]c54)cc2-3)[nH]1)C(C)C`, the Fa in data set [2] came out at 100%; in data set [3], 53%; in data set [6], 27%.

As to `COC(=O)N[C@H](C(=O)N1C[C@@H](C)C[C@H]1c1nc2ccc3cc4c(cc3c2[nH]1)OCc1cc(-c2cnc([C@@H]3C[C@H](C)CN3C(=O)[C@H](NC(=O)OC)c3ccccc3)[nH]2)ccc1-4)C(C)C`, the Fa in data set [6] was 4%.

As to `COC[C@H]1C[C@@H](c2nc3ccc4cc5c(cc4c3[nH]2)OCc2cc(-c3cnc([C@@H]4CC[C@H](C)N4C(=O)[C@@H](NC(=O)OC)C(C)C)[nH]3)ccc2-5)N(C(=O)[C@@H](NC(=O)OC)C(C)C)C1`, the results for the Fa in data set [3] and in data set [6] were 64% and 13%, respectively.

For the compound `COC[C@H]1C[C@@H](c2nc3ccc4cc5c(cc4c3[nH]2)OCc2cc(-c3cnc([C@@H]4C[C@H](C)CN4C(=O)[C@@H](NC(=O)OC)C(C)C)[nH]3)ccc2-5)N(C(=O)[C@@H](NC(=O)OC)C(C)C)C1`, the Fa in data set [6] turned out to be 11%.

As for `COC(=O)N[C@H](C(=O)N1CCC[C@H]1c1ncc(-c2ccc3c(c2)COc2cc4c(ccc5nc([C@@H]6C[C@H](C)CN6C(=O)[C@@H](NC(=O)OC)C(C)C)[nH]c54)cc2-3)[nH]1)C(C)C`, the Fa in data set [6] worked out at 10%.

Regarding `COC[C@H]1C[C@@H](c2nc3ccc4cc5c(cc4c3[nH]2)OCc2cc(-c3cnc([C@@H]4CCCN4C(=O)[C@@H](NC(=O)OC)C(C)C)[nH]3)ccc2-5)N(C(=O)[C@@H](NC(=O)OC)C(C)C)C1`, the Fa in data set [2] amounted to 56%; in data set [6], 16%.

As for `COC(=O)N[C@H](C(=O)N1CCC[C@H]1c1ncc(-c2ccc3c(c2)COc2cc4c(ccc5nc([C@@H]6CCCN6C(=O)[C@H](NC(=O)OC)c6ccccc6)[nH]c54)cc2-3)[nH]1)C(C)C`, the Fa in data set [2] is 56%; in data set [3] it was 16%; in data set [6], 13%.

As for `COC(=O)N[C@@H](C(=O)N1C[C@@H](C)C[C@H]1c1ncc(-c2cc3c4c(c2)OCc2cc(-c5cnc([C@@H]6C[C@H](C)CN6C(=O)[C@H](NC(=O)OC)c6ccccc6)[nH]5)cc(c2-4)OC3)[nH]1)c1ccccc1`, the Fa in data set [2] was found to be 30%; in data set [6], 2%.
